The supplement of paper PMC10307832

Legend:
Assay in all cases: relative viability (nuclei count vs DMSO), 5 days (fraction); higher = more cells survive
Selisistat + AZD7762 = compound: C1CC(C2=C(C1)C3=C(N2)C=CC(=C3)Cl)C(=O)N [Selisistat] + NC(=O)Nc1cc(-c2cccc(F)c2)sc1C(=O)N[C@H]1CCCNC1 [AZD7762] (partner 0.2 µM)
Method in brief: (§1)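 After 5 days of treatment, lung cancer cells in 1536-well plates were fixed and stained in a single step (final 0.05% Triton X-100, 1% formaldehyde, 1 ug/ml Hoechst) and their nuclei counted on 4× images. Treatment had been applied by pin tool the day after seeding as one drug alone or as a fixed anchor-drug dose with five library-drug doses (not always all listed) in √10 steps. Relative viability is the nuclei count of treated wells divided by that of vehicle wells, and values are medians of duplicate plates.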

Serdemetan + Phenformin = compound: c1ccc2c(CCNc3ccc(Nc4ccncc4)cc3)c[nH]c2c1 [Serdemetan] + N=C(N)NC(=N)NCCc1ccccc1 [Phenformin] (partner 250 µM)
Method in brief: as §1

Selisistat + Tozasertib = compound: C1CC(C2=C(C1)C3=C(N2)C=CC(=C3)Cl)C(=O)N [Selisistat] + Cc1cc(Nc2cc(N3CCN(C)CC3)nc(Sc3ccc(NC(=O)C4CC4)cc3)n2)n[nH]1 [Tozasertib] (partner 0.1 µM)
Method in brief: as §1

Selisistat + Pemetrexed = compound: C1CC(C2=C(C1)C3=C(N2)C=CC(=C3)Cl)C(=O)N [Selisistat] + Nc1nc2[nH]cc(CCc3ccc(C(=O)N[C@@H](CCC(=O)O)C(=O)O)cc3)c2c(=O)[nH]1 [Pemetrexed] (partner 0.2 µM)
Method in brief: as §1

Cell Line | relative viability (Selisistat + AZD7762; first compound 0.4 µM) | relative viability (Selisistat + AZD7762; first compound 1.265 µM) | relative viability (Selisistat + AZD7762; first compound 4 µM) | relative viability (Selisistat + AZD7762; first compound 12.65 µM) | relative viability (Selisistat + AZD7762; first compound 40 µM) | relative viability (Serdemetan + Phenformin; first compound 0.04 µM) | relative viability (Serdemetan + Phenformin; first compound 0.1265 µM) | relative viability (Serdemetan + Phenformin; first compound 0.4 µM) | relative viability (Serdemetan + Phenformin; first compound 1.265 µM) | relative viability (Serdemetan + Phenformin; first compound 4 µM) | relative viability (Selisistat + Tozasertib; first compound 0.4 µM) | relative viability (Selisistat + Tozasertib; first compound 1.265 µM) | relative viability (Selisistat + Tozasertib; first compound 4 µM) | relative viability (Selisistat + Tozasertib; first compound 12.65 µM) | relative viability (Selisistat + Tozasertib; first compound 40 µM) | relative viability (Selisistat + Pemetrexed; first compound 0.4 µM) | relative viability (Selisistat + Pemetrexed; first compound 1.265 µM) | relative viability (Selisistat + Pemetrexed; first compound 4 µM) | relative viability (Selisistat + Pemetrexed; first compound 12.65 µM) | relative viability (Selisistat + Pemetrexed; first compound 40 µM)
NCI-H1666 | 0.841 | 0.83 | 0.806 | 0.895 | 0.96 | 0.55 | 0.557 | 0.535 | 0.529 | 0.412 | 0.631 | 0.591 | 0.594 | 0.589 | 0.541 | 0.948 | 0.803 | 0.871 | 0.822 | 0.853
NCI-H1734 | 0.594 | 0.485 | 0.453 | 0.505 | 0.607 | 0.303 | 0.318 | 0.338 | 0.156 | 0.181 | 0.278 | 0.265 | 0.283 | 0.263 | 0.228 | 0.357 | 0.388 | 0.401 | 0.434 | 0.391
NCI-H1755 | 0.427 | 0.391 | 0.407 | 0.407 | 0.43 | 0.625 | 0.623 | 0.564 | 0.469 | 0.52 | 0.635 | 0.613 | 0.621 | 0.525 | 0.61 | 0.406 | 0.431 | 0.524 | 0.619 | 0.366
NCI-H1793 | 0.477 | 0.461 |  | 0.53 | 0.73 | 0.378 | 0.293 | 0.247 | 0.236 | 0.26 | 0.324 | 0.395 |  | 0.326 | 0.582 | 1.06 | 0.824 |  | 1.03 | 0.867
NCI-H1915 | 0.668 | 0.687 | 0.775 | 0.674 | 0.757 | 0.38 | 0.358 | 0.359 | 0.318 | 0.334 | 0.436 | 0.41 | 0.374 | 0.339 | 0.41 | 0.494 | 0.559 | 0.495 | 0.462 | 0.489
NCI-H1944 | 0.523 | 0.509 | 0.428 | 0.653 | 0.586 | 0.197 | 0.213 | 0.202 | 0.128 | 0.154 | 0.273 | 0.243 |  | 0.231 | 0.256 | 0.634 | 0.575 | 0.458 | 0.674 | 0.584
NCI-H1975 | 0.684 | 0.661 | 0.581 | 0.647 | 0.646 | 0.401 | 0.416 | 0.427 |  | 0.415 | 0.715 | 0.63 | 0.69 | 0.48 | 0.396 | 0.275 | 0.283 | 0.3 | 0.278 | 0.316
NCI-H1993 | 0.793 | 0.791 |  | 0.954 | 0.816 | 0.516 | 0.539 | 0.596 | 0.454 | 0.532 | 0.58 | 0.579 | 0.57 | 0.569 | 0.539 | 0.581 | 0.711 |  | 0.554 | 0.592
NCI-H2085 | 1.06 | 1.02 | 0.67 | 0.992 | 0.983 | 0.778 | 0.762 | 0.634 | 0.571 | 0.424 | 0.852 | 0.779 | 0.697 | 0.805 | 0.806 | 1.06 | 0.967 | 0.622 | 0.939 | 0.877
NCI-H2087 | 1.31 | 1.14 |  | 1.19 | 1.25 | 0.446 | 0.47 | 0.455 | 0.267 | 0.253 | 0.247 | 0.236 |  | 0.164 | 0.272 | 0.681 | 0.624 |  | 0.634 | 0.691
NCI-H2126 | 1.04 | 1.04 | 0.992 | 1.03 | 1.03 | 0.555 | 0.557 | 0.535 | 0.512 | 0.527 | 0.852 | 0.819 | 0.825 | 0.841 | 0.867 | 0.716 | 0.653 | 0.588 | 0.68 | 0.655
NCI-H2170 | 0.868 | 0.939 | 0.82 | 0.854 | 0.911 | 0.374 | 0.354 | 0.383 | 0.35 | 0.336 | 0.732 | 0.592 | 0.703 | 0.629 | 0.8 | 0.249 | 0.264 | 0.25 | 0.244 | 0.242
NCI-H2342 | 0.494 | 0.483 | 0.41 | 0.611 | 0.505 | 0.597 | 0.538 | 0.628 | 0.537 | 0.393 | 0.504 | 0.502 | 0.504 | 0.502 | 0.57 | 0.806 | 0.756 | 0.677 | 0.77 | 0.769
NCI-H2347 | 0.733 | 0.66 |  | 0.774 | 0.795 | 0.52 | 0.382 | 0.366 | 0.3 | 0.289 | 0.606 | 0.733 | 0.427 | 0.617 | 0.583 | 0.526 | 0.425 | 0.374 | 0.411 | 0.432
NCI-H2405 | 0.718 | 0.732 |  | 0.725 | 0.678 | 0.317 | 0.406 | 0.366 | 0.344 | 0.381 | 0.784 | 0.752 | 0.719 | 0.763 | 0.722 | 0.984 | 1.04 |  | 1.01 | 1.04
NCI-H3122 | 1.03 | 0.95 |  | 1.04 | 1 | 0.302 | 0.363 | 0.352 | 0.236 | 0.311 | 0.367 | 0.352 | 0.347 | 0.34 | 0.372 | 0.184 | 0.198 | 0.187 | 0.205 | 0.188
PC-3 [JPC-3] | 0.834 | 0.861 |  | 0.744 | 0.695 | 0.475 | 0.494 | 0.486 | 0.482 | 0.532 | 0.917 | 0.853 | 0.82 | 0.857 | 0.915 | 1.14 | 1.15 |  | 0.951 | 1.02
